Biological target: T1, HIV-1 protease (Human immunodeficiency virus type 1 group M subtype B, UniProt P04585)
T1 construct: The enzyme HIV-1 protease exists as a dimer
Experiment: Isothermal denaturation of Oregon Green-labelled HIV-1 protease monitored by fluorescence correlation spectroscopy (FCS)
Assay type: binding
Method: HIV-1 Protease. HIV-1 Protease was extensively dialyzed against 0.1 M sodium phosphate, 0.05% NaN3, pH 6.5, at 5° C., using a Pierce Slide-A-Lyzer™ (2,000 MWCO). The protease concentration was approximately 1 mg/mL. There was a slight turbidity after dialysis. Protease recovery was assumed to be 100% (53 nanomoles in 1.1 mL).
A freshly prepared solution of Oregon Green™ Iodoacetamide (Molecular Probes Inc., Cat. No. O-6010; approximately 10 mM in DMSO) was added at zero and 5 hours of incubation to achieve at each time a 3-fold molar ratio of Oregon Green™ to protease. At approximately 8 hours another addition of a 4-fold molar excess was made. After each addition the solution was gently but thoroughly mixed. Incubations were without agitation at 5° C. and continued for 16 hours after the last addition.
The resulting clear solution was chromatographed over a Bio-Gel P-6 Desalting Gel™ column (0.9 cm×25 cm) using 50% volume/volume (v/v) glacial acetic acid/distilled-water as the eluant. […]
The solution of conjugated protease was 0.2 micron filtered and evaluated for Oregon Green™ concentration by extinction and for protease concentration by amino acid analysis. Spectrophotometric results determined an Oregon Green™ concentration of 1.94 μM. […]
Microfuge tubes containing 1.5 mL buffer were placed in a pre-equilibrated 48° C. water bath and the temperature was monitored with a telethermometer. […]
This material was diluted to 10 nM in a 2.0 mL teflon chamber already located on the microscope stage containing the same buffer at room temperature. […] Binning combines the fluorescence measurements from contiguous time-periods. […]
The autocorrelated data were analyzed with a nonlinear least squares (NLLSF) fitting program based on that disclosed in Yamaoka et. al., J. Pharmacobio Dyn., 4, 8-15 (1981). […]
In these experiments, since both native and denatured proteins exist, the calculated results represent an average value for the amount of material in the two states. […] The data were analyzed with weighting values of either zero or single inverse weighting. […]

[1] = HIV-1 protease incubated with compound at 48° C. for 24 minutes, single inverse weighting, FIG. 8B

## CCC[C@@]1(CCc2ccccc2)CC(O)=C([C@H](CC)c2cccc(NS(=O)(=O)c3ccc(C(F)(F)F)cn3)c2)C(=O)O1 [PNU-140690]
48° C., time points 0 to 60 minutes, with vs without compound, FIG. 9
  stabilization of HIV-1 protease against isothermal denaturation (change in apparent diffusion coefficient as a function of time): clearly stabilizes the enzyme
[1]
  G(0) (unimolecular model, autocorrelation curve): 292×10^−3±11.7×10^−3
  diffusion coefficient (unimolecular model, autocorrelation curve): 1.33×10^−6±0.09×10^−6

Reference: patent publication US6582907B1, “Use of fluorescence correlation spectroscopy to identify compounds that bind to target species under isothermal denaturing conditions” (Pharmacia & Upjohn Company, priority 1999, dated 2003)
